Earlier results on three compounds are cited in patent publication US5502037A, “Pro-cytotoxic drug conjugates for anticancer therapy” (priority 1993, dated 1996).

Where two headings read alike, the source gives them in different places.

Data set [1] deals with mouse Yoshida ascites sarcoma cells. To be noted: for In vitro activities: Cytotoxicity: cu = cytostatic units, Yoshida ascites sarcoma cells, Brock, 1976.
The subject of another data set is tumor cells. The settings on record: for activity as the result of in vivo metabolism: once activated / metabolized.
For data set [2] the following is noted: NBP test, relative to NNM; taken from Brock, 1976.

For the compound `O=P1(N(CCCl)CCCl)NCCCO1` (stereo not drawn) [CP, cyclophosphamide], the “activity in the in vitro Yoshida cell cytotoxicity test (in words)” value in data set [1] (comment on Table II) is “virtually inactive”. The “In vitro activities: Cytotoxicity” value in data set [1] is listed as less than 0.03 CU/μmol. The “activity as the result of in vivo metabolism” value in the data set on tumor cells was “highly cancerotoxic”. The “biologic activity in vitro and in vivo before metabolism” value in the data set on tumor cells (initially, in vitro and in vivo) is given as “only slight biologic activity”. For the same compound, in the data set with Yoshida ascites sarcoma (comment on Table II), the “activity in vivo against the rat Yoshida ascites sarcoma (in words)” value is recorded as “highly active therapeutic agent”. In the data set on Yoshida ascites sarcoma (curative dose, Yoshida ascites sarcoma in rat, Brock, 1976), the “In vivo activities: CD50” value was 1.25 mg/kg. Moreover, in the data set on Yoshida ascites sarcoma (rat, in vivo), the “D50 Index (LD50/CD50)” value is recorded as 175 and the “In vivo activities: LD50” value is listed as 220 mg/kg. Also, the “In vitro activities: Alkylating” value in data set [2] was 1.3%.

Consider `C=CC=O` [Acrolein, acrolein], for which the “In vitro activities: Cytotoxicity” value in data set [1] is on record as 0.4 CU/μmol. The “In vivo activities: LD50” value with Yoshida ascites sarcoma (lethal dose, rat, Brock, 1976) was 7.3 mg/kg. In the data set on Yoshida ascites sarcoma (rat, in vivo), the “D50 Index (LD50/CD50)” value is listed as ~ 3 and the “In vivo activities: CD50” value is more than 2.15 mg/kg. The “In vitro activities: Alkylating” value in data set [2] is reported as 1.9%.

As to `O=P1(NCCCl)OCCCN1CCCl` (stereo not drawn) [isophosphamide], in the data set on tumor cells, the “activity as the result of in vivo metabolism” value was “highly cytotoxic in vivo to tumor cells once activated”.
